System: drug-resistant Mycobacterium tuberculosis
Details: peptide 10 micrograms per ml, seven days

For `CC[C@H](C)[C@H](NC(=O)[C@H](CCCCN)NC(=O)[C@H](CCC(=O)O)NC(=O)[C@H](CCCCN)NC(=O)[C@H](CO)NC(=O)[C@H](CCCCN)NC(=O)[C@H](CCCNC(=N)N)NC(=O)[C@H](Cc1ccccc1)NC(=O)[C@H](Cc1ccccc1)NC(=O)[C@H](CC(=O)O)NC(=O)CNC(=O)[C@H](CC(C)C)NC(=O)[C@@H](N)CC(C)C)C(=O)NCC(=O)N[C@@H](CCCCN)C(=O)N[C@@H](CCC(=O)O)C(=O)N[C@@H](Cc1ccccc1)C(=O)N[C@@H](CCCCN)C(=O)N[C@@H](CCCNC(=N)N)C(=O)N[C@H](C(=O)N[C@H](C(=O)N[C@@H](CCC(N)=O)C(=O)N[C@@H](CCCNC(=N)N)C(=O)N[C@H](C(=O)N[C@@H](CCCCN)C(=O)N[C@@H](CC(=O)O)C(=O)N[C@@H](Cc1ccccc1)C(=O)N[C@@H](CC(C)C)C(=O)N[C@@H](CCCNC(=N)N)C(=O)N[C@@H](CC(N)=O)C(=O)N[C@@H](CC(C)C)C(=O)N[C@H](C(=O)N1CCC[C@H]1C(=O)N[C@@H](CCCNC(=N)N)C(=O)N[C@H](C(=O)N[C@@H](CCC(=O)O)C(=O)N[C@@H](CO)C(N)=O)[C@@H](C)O)C(C)C)[C@@H](C)CC)C(C)C)[C@@H](C)CC` [LL-37], the “% inhibition” value was 0.0%.

Source: patent US20100210539A1, “USE OF PEPTIDE LL-37 AS A THERAPEUTIC AGENT” (priority 2007, published 2010)
